From patent publication US7820379B2, “Process for high throughput screening of CpG-based immuno-agonist/antagonist” (Coley Pharmaceutical GmbH, priority 2000, dated 2010) come the findings set out here.

In the data set the target is T1, murine TLR9 (Mus musculus, UniProt Q9EQU3, L378S/Q579H/T325N/T573A/T867A).
T1 construct: additional primers were designed for amplification of the complete mouse TLR9 cDNA; expressed in transfected cells
T1 sequence (Q9EQU3 26-1032 T325N/L378S/T573A/Q579H/T867A): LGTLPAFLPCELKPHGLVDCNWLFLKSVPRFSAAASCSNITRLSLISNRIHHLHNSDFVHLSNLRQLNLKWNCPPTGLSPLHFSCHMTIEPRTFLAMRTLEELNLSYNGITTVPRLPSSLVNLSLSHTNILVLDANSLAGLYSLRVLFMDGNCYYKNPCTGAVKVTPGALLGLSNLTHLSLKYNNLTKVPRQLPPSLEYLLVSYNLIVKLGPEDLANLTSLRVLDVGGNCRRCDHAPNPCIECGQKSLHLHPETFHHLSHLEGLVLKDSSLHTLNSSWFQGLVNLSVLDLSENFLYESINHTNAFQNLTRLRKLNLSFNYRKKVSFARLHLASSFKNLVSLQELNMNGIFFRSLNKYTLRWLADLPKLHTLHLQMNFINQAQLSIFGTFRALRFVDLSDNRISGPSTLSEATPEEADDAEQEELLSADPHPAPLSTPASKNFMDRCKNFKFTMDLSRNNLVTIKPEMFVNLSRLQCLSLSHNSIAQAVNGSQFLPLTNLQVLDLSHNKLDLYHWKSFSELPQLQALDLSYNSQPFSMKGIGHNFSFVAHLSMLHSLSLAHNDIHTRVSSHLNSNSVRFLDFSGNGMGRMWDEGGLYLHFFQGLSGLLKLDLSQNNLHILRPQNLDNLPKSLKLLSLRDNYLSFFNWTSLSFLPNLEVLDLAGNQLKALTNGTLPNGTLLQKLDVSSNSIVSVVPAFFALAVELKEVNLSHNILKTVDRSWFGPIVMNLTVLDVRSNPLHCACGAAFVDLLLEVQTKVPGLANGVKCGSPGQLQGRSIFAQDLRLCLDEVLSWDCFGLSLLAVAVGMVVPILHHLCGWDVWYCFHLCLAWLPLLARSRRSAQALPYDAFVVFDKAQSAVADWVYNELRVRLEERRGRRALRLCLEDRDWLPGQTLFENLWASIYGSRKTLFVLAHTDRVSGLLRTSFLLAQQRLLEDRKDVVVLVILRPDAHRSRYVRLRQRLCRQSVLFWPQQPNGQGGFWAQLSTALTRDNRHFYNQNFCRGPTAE
Kind of data set: NF-κB-luciferase activation in 293 cells transfected with murine TLR9 (293-mTLR9-luc). Type of data set: cell-based. Conditions: for EC50: ODN concentration of half-maximal activation, 293-mTLR9-luc cells, NF-κB-driven luciferase readout, 12 hours, read-out: 293-mTLR9 Kac. The text has this:
Human fibroblast 293 cells were transiently transfected with mTLR9 and the NF-κB-luc construct (FIG. 2). Similar data was obtained for IL-8 production (not shown). Thus expression of TLR9 (human or mouse) in 293 cells results in a gain of function for CpG-DNA stimulation similar to hTLR4 reconstitution of LPS responses.
To generate stable clones expressing human TLR9, murine TLR9, or either TLR9 with the NF-κB-luc reporter plasmid, 293 cells were transfected in 10 cm plates (2×10^6 cells/plate) with 16 μg of DNA and selected with 0.7 mg/ml G418 (PAA Laboratories GmbH, Cölbe, Germany). The clones were also screened for IL-8 production or NF-κB-luciferase activity after stimulation with ODN. Four different types of clones were generated. • 293-hTLR9-luc: expressing human TLR9 and 6-fold NF-κB-luciferase reporter • 293-mTLR9-luc: expressing murine TLR9 and 6-fold NF-κB-luciferase reporter • 293-hTLR9: expressing human TLR9 • 293-mTLR9: expressing murine TLR9
Similar results were obtained utilizing IL-8 production with the stable clone 293-hTLR9. 293-mTLR9-luc were also stimulated with CpG-ODN (1668, 2 μM; […], SEQ ID NO:84), GpC-ODN (1668-GC, 2 μM; […], SEQ ID NO:85), Me-CpG-ODN (1668 methylated, 2 μM; TCCATGAZGTTCCTGATGCT, Z=5-methylcytidine, SEQ ID NO:207), LPS (100 ng/ml) or media, as measured by monitoring NF-κB activation (FIG. 5). Similar results were obtained utilizing IL-8 production with the stable clone 293-mTLR9. Results are representative of at least two independent experiments. […] These cells can be used for screening of optimal ligands for innate immune responses driven by TLR9 in multiple species.
Because stable TLR9 transfectants mirrored primary cell responsiveness to CpG-DNA (FIGS. 4 and 5), it was hypothesized that stable transfectants could potentially discern species-specific CpG-motifs through TLR9 receptors. Therefore 293-hTLR9-luc (expressing human TLR9 and 6-fold NF-κB-luc reporter), 293-mTLR9-luc (expressing murine TLR9 and 6-fold NF-κB-luc reporter), 293-hTLR9 (expressing human TLR9) and 293-mTLR9 (expressing murine TLR9) clones were tested for CpG-DNA motif responsiveness. […] Depicted are both NF-κB-driven luciferase and IL-8 production as readout. […] After lysis of the cells luciferase can be detected photometrically based on an enzymatic reaction by luciferase which creates photons. IL-8 production was monitored using enzyme-linked immunosorbent assay (ELISA). […] Results shown in FIG. 11 are representative of three independent experiments. Strikingly, CpG-motif sequence specificity was conferred in a species-specific manner by TLR9. Additionally, the half-maximal concentration for either 2006 or 1668 appears nearly the same as those determined on primary cells (compare FIG. 10 and FIG. 11).
Although 2006 and 1668 are discussed in terms of CpG-motif differences, they are very different in several aspects (see Table 5 for comparison). The lengths are different, 24 versus 20 nucleotides, and 2006 has four CG dinucleotides compared to one in 1668. Additional differences are the CG position relative to the 5′ and 3′ ends and also 5′ sequence differences. In order to determine if motif specificity is a quality of the motif and not the global sequence environment, for this experiment several sequences were produced holding these variables constant. As a starting point, the 1668 sequence was modified by converting the central C to T and the distal TG to CG, thereby creating a second CG in the resulting sequence 5000 (SEQ ID NO:130, Table 5). Then point nucleotide changes were made, progressing toward a 2006-like sequence, 5007 (SEQ ID NO:98). The ODN 5002 (SEQ ID NO:132) is most like 1668 with the exception that C's at positions 12 and 19 have been converted to T's. […]

A value given as a limit tells only on which side of the number the result lay.

As to “TCCATGACGTTCCTGATGCT (listed as DNA, chemistry not fully specified) [ODN 1668]”, the EC50 came out at 70 nM. In addition, where the note is “CpG-ODN 1668 compared with CpG-ODN 2006”, the “murine TLR9 signaling response” value is recorded as “significantly stronger”.

As for “TCCATGACGTTCTTGACGCT (listed as DNA, chemistry not fully specified) [ODN 5000]”, the EC50 is 82 nM.

With “TCCATGACGTTCTTGACGTT (listed as DNA, chemistry not fully specified) [ODN 5001]”, the EC50 worked out at 55 nM.

As to “TCCATGAGCTTCCTGATGCT (listed as DNA, chemistry not fully specified) [ODN 1668-GC]”, the EC50 was greater than 10000 nM.

Regarding “TCCATGTCGTTCTTGATGTT (listed as DNA, chemistry not fully specified) [ODN 5004]”, the EC50 came out at 400 nM.

As to “TCCATGTCGTTTTTGATGTT (listed as DNA, chemistry not fully specified) [ODN 5005]”, the EC50 stood at 2000 nM.

With “TCCATGTCGTTTTTGTCGTT (listed as DNA, chemistry not fully specified) [ODN 5007]”, the EC50 worked out at 1000 nM.

Regarding “TCCATGTCGTTTTTGTTGTT (listed as DNA, chemistry not fully specified) [ODN 5006]”, the EC50 was determined as 650 nM.

In the case of TCGTCGTTTTGTCGTTTTGTCGTT [ODN 2006], the EC50 is greater than 10000 nM.

In the case of “TGCTGCTTTTGTGCTTTTGTGCTT (listed as DNA, chemistry not fully specified) [ODN 2006-GC]”, the EC50 was greater than 10000 nM.
